From article PMC3436892, “Novel African Trypanocidal Agents: Membrane Rigidifying Peptides” (PLoS ONE, 2012)

Key:
[1] = system: metacyclic T. b. brucei; assay: 2 h in vitro killing assay, metacyclic form; type: cell-based, Trypanosoma brucei brucei strain STIB247; conditions: 2 h incubation, 1×10^4 cells/mL, HMI 9 with 10 % fetal bovine serum, live cells scored by hemocytometer, at least duplicate (Fig. 1a)
Method: (§1) Light microscopy based trypanosome killing assays were performed as previously described in detail, [10], [21], [22]. Metacyclic Trypanosoma brucei brucei strain STIB247 were obtained from dissection of the salivary glands of infected tsetse flies. Newly hatched Glossina morsitans morsitans (24–48 h post eclosion) were fed two defibrinated horse blood meals containing 2×10^6 mL^-1 trypanosomes on two separate days. Flies were then maintained at 25°C in 75 % relative humidity and fed maintenance blood meals three times per week. Following day 20–30, flies were harvested and salivary glands were dissected out and placed into HMI 9 media containing 10 % fetal bovine serum for 30 minutes. Metacyclic cells were expelled into the media by the residual peristalsis of the salivary glands. Cells were collected via centrifugation and maintained in HMI 9 media with 20 % fetal bovine serum at 37°C in 5 % CO2 until use. Killing assays were conducted with 1×10^4 cells/mL in HMI 9 media containing 10 % fetal bovine serum. Live cells were scored via hemocytometer after 2 h incubation. Trypanosoma vivax strain ILRAD V34 and Trypanosoma congolense strain IL3000 were grown from stabilites in donor ICR mouse (Harlan, United Kingdom). […] Cells were incubated at 37°C for 2 h and live cells were scored visually via hemocytometer. […]

[2] = system: Bloodstream developmental forms of T. vivax; assay: 2 h in vitro killing assay, T. vivax; type: cell-based, Trypanosoma vivax strain ILRAD V34; conditions: 37°C, 1×10^7 cells/mL, HMI 9 with 20 % bovine serum, hemocytometer, at concentrations similar to BSF T. brucei (Fig. 1b)
Method: as §1

[3] = system: Bloodstream developmental forms of T. congolense; assay: 2 h in vitro killing assay, T. congolense; type: cell-based, Trypanosoma congolense strain IL3000; conditions: 37°C, 1×10^7 cells/mL, HMI 9 with 20 % bovine serum, hemocytometer, at concentrations similar to BSF T. brucei (Fig. 1b)
Method: as §1

[4] = system: BSF T. b. brucei VSG; assay: FRAP of surface VSG; type: cell-based, strain 427; conditions: 8 µM peptide, 10 min at 37°C, cells immobilized in gelatin, line FRAP at 20°C (Fig. 2c)
Method: Bloodstream form T. b. brucei, strain 427, expressing VSG MITat1.6 were cultivated in HMI 9 media with 10% fetal calf serum. 1×10^7 cells were washed three times with ice cold trypanosome dilution buffer (TDB; 5 mM KCl, 80 mM NaCl, 1 mM MgSO4, 20 mM Na2HPO4, 2 mM NaH2PO4, 20 mM glucose, pH 7.6). The cell density was adjusted to 1×10^8 cells/mL and labeling of surface proteins was achieved by incubation with 1 µM sulfo-NHS coupled Atto 488 fluorescent dye (ATTO-TEC GmbH, Siegen) for 15 min on ice. After incubation the cells were washed three times with ice cold TDB to remove unbound dye. Labeled T. b. brucei cells were incubated with 8 µM SHP-1 for 10 min at 37°C. The fluorescently labeled cells were mixed 1∶3 with 10% Type-A gelatin from porcine skin (Sigma-Aldrich, Steinheim) in PBS, pH 7.8, at 37°C. 4 µL of the cell gelatin mixture was applied into a cover slide sandwich and mounted into a temperature controlled sample holder. The sample holder was cooled to 20°C until the cells were immobilized. Samples of SHP-1 treated and untreated MITat 1.6 wt cells were prepared identically. […] 10 pre-bleach and 100 post-bleach images were recorded at 2fps. VSG mobile fractions were determined according to Phair et al. (2004) using double normalization. The mobile fraction refers to the percentage of mobile VSG molecules within the measured region. […]

[5] = system: Live BSF T. b. brucei; assay: Trypanosome motility scoring by DIC microscopy; type: cell-based, Trypanosoma brucei brucei; conditions: 40 µM SHP, 37°C, 1×10^7 cells/mL, HMI 9 with 10 % fetal bovine serum, DIC microscopy, at least duplicate (Fig. 2d)
Method: All images and videos were acquired with an Axio Observer Z1 equipped with an AxioCam MRm controlled by AxioVision 4.6 software. Videos were acquired with live cells at a density of 1×10^7 cells/mL in HMI 9 media with 10 % fetal bovine serum, incubated with 40 µM SHP at 37°C. Trypanosomes were visualized at magnification 63 × and videos were recorded with 100-ms acquisition times. The motility of BSF trypanosomes was scored directly or from video playback. Trypanosome motility was classified as normal, hyperactive or constricted as described previously. An example of a trypanosome scored as normal is shown in Movie S1. […] Data in figure 2D is shown as the average of at least duplicate trials with standard deviations.

[6] = Circular dichroism spectroscopy; type: physicochemical
Method: Spectra were recorded with a Jasco J-710 spectropolarimeter in a 1 mm quartz cuvette. Measurements were performed with a final concentration of 15 µM SHP-1 added from a stock of ethanol-solubilized peptide (final ethanol concentration 7.5 %) in 10 mM K2PO4, 50 mM Na2PO4, pH 7.5. Lipid associated peptide spectra were recorded with the addition of 0.1 µm unilamellar egg phosphatidylcholine liposomes at a peptide to lipid ration of 0.3. Spectra were averaged from four scans and the appropriate buffer scans were subtracted.

[7] = system: BSF T. b. brucei; conditions: veterinary and human pathogenic BSF T. brucei; cited from earlier work
From the text: Specificity of SHP is mediated by a high degree of fluidity in the plasma membrane of BSF cells. […] Human cells, including erythrocytes, are refractory to SHP concentrations orders of magnitude higher than necessary to kill BSF T. brucei.

[8] = system: Live BSF T. b. brucei; conditions: previously reported; cited from earlier work
From the text: Treatment of BSF African trypanosomes with SHP results in multiple physiological alterations. Addition of SHP-1 to BSF trypanosomes, which were subsequently immobilized in gelatin, decreases the fraction of laterally mobile surface exposed VSG (Fig. 2c). This effect may be directly due to increased membrane rigidity, or indirectly due to a decrease in the mobility of membrane spanning proteins and potential interactions with the VSG. Another physiological consequence, that may or may not be related to membrane rigidification, is SHP-induced changes in cell motility. Previously we reported that ...

Q: Which “killing activity against metacyclic T. b. brucei” value [1] does the source give for “SDLGAVISLLLWGRQLFA [SHP-1, trypanocidal small hydrophobic peptide derived from an apolipoprotein, with characteristics of a secretory signal peptide]” here?
A: The value was “no killing activity”.

Q: And the “susceptibility of BSF T. vivax to killing” value [2]?
A: The value was “susceptible to killing”.

Q: And the “susceptibility of BSF T. congolense to killing” value [3]?
A: Its value is “susceptible to killing”.

Q: What about the “fraction of laterally mobile surface exposed VSG” value [4] of the same sequence?
A: Its value is “decreases”.

Q: What about the “constriction of motility following hyperactivation” value [5] of the same sequence?
A: The value was “subsequent constriction”.

Q: And the hyperactivation of motility [5]?
A: The hyperactivation of motility was “hyperactivation”.

Q: What about the “secondary structure in the presence of lipid (CD)” value ([6]; 15 µM peptide with 0.1 µm unilamellar egg phosphatidylcholine liposomes, peptide to lipid ratio 0.3, pH 7.5, peak 193 nm, minimum 208 nm) of the same sequence?
A: The value was “α-helical structure”.

Q: What about the “secondary structure in solution (CD)” value ([6]; 15 µM peptide, 7.5 % ethanol, 10 mM K2PO4, 50 mM Na2PO4, pH 7.5, peak 195 nm, crossover about 205 nm, minimum 218 nm) of the same sequence?
A: The value was “β-sheet conformation”.

Q: And the “susceptibility of BSF T. brucei to killing” value [7]?
A: The value was “uniquely susceptible to killing”.

Q: And the “effect on motility of BSF trypanosomes” value [8]?
A: The value was “initial hyperactivation followed by constricted motility and death”.
